Measurements reported in patent US20030055092A1, “Remedies for ischemic stroke” (priority 1998, published 2003).

Assays:
[1] = system: gerbils exposed to 5 min of cerebral ischemia; settings: cited from earlier work
mGluR1α = target: T1, mGluR1α (Rattus norvegicus, UniProt P23385); test: glutamate-induced phosphatidylinositol (PI) hydrolysis in mGluR1α-expressing cells; type: cell-based; settings: 100 μM glutamate, read-out: IC50 for inhibition of glutamate-induced PI formation against mGluR1α
T1 construct: expressed in transfected cells; host or cells: NIH3T3
Description: (§1) NIH3T3 cells expressed mGluR1 α and mGluR5a individually were cultured in DMEM medium containing 10% dialyzed fetal bovine serum and 100 units/ml, 0.1 mg/ml streptomycin sulfate. CHO cells which expressed mGluR2, R3, R4, R6 and R7 individually were cultured in DMEM medium containing 10% dialyzed fetal bovine serum, 100 units/ml, 0.1 mg/ml streptomycin sulfate and 2 mM glutamine. Hydrolysis of phosphatidylinositol was measured as previously described (Nature, 383, 89-92, 1996) using the mGluR1 α-expressing cells incorporated ^3H-inositol.

[2] = system: Fischer-344 rat, permanent left MCA occlusion; test: permanent MCA occlusion model, cerebral infarct volume (TTC staining); type: in vivo; settings: 6 mg/kg/h i.v. continuously for 24 hours from 5 minutes after occlusion
Description: Compound A was dissolved in physiological saline and adjusted to 6 mg/3 ml. In accordance with the known method (J. Pharmacol. Exp. Thr., 276, 84-92, 1996), left MCA of a Fischer-344 rat was subjected to permanent occlusion and, 5 minutes thereafter, the compound A was intravenously administered continuously for 24 hours at a rate of 6 mg/a dose volume of 3 ml/kg/h under no anesthesia and no restriction. After completion of the administration, the animal was decapitated to excise the brain which was subsequently stained with 2,3,5-triphenyltetrazolium hydrochloride (TTC) to measure infarct volume.

mGluR5 = target: T2, mGluR5 (Rattus norvegicus, UniProt P31424); test: agonist/antagonist activity in mGluR5a-expressing NIH3T3 cells; type: cell-based; settings: up to 10 μM
T2 construct: expressed in transfected cells; host or cells: NIH3T3
T2 sequence (P31424 21-1171 isoform P31424-2 limits assumed): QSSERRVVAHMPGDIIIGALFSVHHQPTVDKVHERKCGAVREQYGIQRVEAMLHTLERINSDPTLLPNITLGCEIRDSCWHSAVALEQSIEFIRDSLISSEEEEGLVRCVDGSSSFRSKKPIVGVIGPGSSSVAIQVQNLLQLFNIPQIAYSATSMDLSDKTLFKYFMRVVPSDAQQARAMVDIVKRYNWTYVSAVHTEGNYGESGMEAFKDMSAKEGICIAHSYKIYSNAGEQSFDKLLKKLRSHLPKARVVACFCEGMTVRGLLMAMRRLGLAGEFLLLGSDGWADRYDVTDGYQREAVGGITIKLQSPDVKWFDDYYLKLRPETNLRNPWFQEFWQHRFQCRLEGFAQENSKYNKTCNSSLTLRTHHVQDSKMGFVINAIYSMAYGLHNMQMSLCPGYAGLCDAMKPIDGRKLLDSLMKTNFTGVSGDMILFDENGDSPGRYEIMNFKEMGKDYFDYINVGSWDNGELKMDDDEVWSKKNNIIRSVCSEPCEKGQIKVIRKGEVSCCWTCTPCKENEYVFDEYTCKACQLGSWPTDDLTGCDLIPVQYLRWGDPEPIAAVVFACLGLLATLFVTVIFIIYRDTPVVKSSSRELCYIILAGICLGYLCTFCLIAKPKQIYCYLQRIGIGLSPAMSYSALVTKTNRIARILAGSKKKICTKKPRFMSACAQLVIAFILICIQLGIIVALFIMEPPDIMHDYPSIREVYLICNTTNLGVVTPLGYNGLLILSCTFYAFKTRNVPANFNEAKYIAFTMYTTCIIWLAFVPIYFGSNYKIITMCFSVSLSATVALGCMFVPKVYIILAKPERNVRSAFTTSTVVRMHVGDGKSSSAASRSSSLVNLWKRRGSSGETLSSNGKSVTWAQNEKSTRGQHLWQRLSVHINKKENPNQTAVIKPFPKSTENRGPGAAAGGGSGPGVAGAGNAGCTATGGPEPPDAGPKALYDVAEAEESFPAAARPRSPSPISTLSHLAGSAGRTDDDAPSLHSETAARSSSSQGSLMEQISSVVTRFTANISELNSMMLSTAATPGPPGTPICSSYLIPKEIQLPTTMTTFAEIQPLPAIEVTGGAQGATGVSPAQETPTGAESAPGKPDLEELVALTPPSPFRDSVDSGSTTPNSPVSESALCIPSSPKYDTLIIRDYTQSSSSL
Description: as §1, with “glutamine.” for “glutamine. Hydrolysis of phosphatidylinositol was measured as previously described (Nature, 383, 89-92, 1996) using the mGluR1 α-expressing cells incorporated ^3H-inositol.”

mGluR3 = target: T3, mGluR3 (Rattus norvegicus, UniProt P31422); test: forskolin-induced cAMP formation in mGluR3-expressing CHO cells; type: cell-based; settings: up to 100 μM
T3 construct: expressed in transfected cells; host or cells: CHO
Description: (§2) NIH3T3 cells expressed mGluR1 α and mGluR5a individually were cultured in DMEM medium containing 10% dialyzed fetal bovine serum and 100 units/ml, 0.1 mg/ml streptomycin sulfate. CHO cells which expressed mGluR2, R3, R4, R6 and R7 individually were cultured in DMEM medium containing 10% dialyzed fetal bovine serum, 100 units/ml, 0.1 mg/ml streptomycin sulfate and 2 mM glutamine. Using the cells expressing mGluR2, R3, R4, R6 and R7 cAMP formation induced by forskolin in the presence of IBMX was measured using a cAMP measuring kit as previously described (Neuron, 8, 169-179, 1992).

mGluR6 = target: T4, mGluR6 (Rattus norvegicus, UniProt P35349); test: forskolin-induced cAMP formation in mGluR6-expressing CHO cells; type: cell-based; settings: up to 100 μM
T4 construct: expressed in transfected cells; host or cells: CHO
T4 sequence (P35349 24-871): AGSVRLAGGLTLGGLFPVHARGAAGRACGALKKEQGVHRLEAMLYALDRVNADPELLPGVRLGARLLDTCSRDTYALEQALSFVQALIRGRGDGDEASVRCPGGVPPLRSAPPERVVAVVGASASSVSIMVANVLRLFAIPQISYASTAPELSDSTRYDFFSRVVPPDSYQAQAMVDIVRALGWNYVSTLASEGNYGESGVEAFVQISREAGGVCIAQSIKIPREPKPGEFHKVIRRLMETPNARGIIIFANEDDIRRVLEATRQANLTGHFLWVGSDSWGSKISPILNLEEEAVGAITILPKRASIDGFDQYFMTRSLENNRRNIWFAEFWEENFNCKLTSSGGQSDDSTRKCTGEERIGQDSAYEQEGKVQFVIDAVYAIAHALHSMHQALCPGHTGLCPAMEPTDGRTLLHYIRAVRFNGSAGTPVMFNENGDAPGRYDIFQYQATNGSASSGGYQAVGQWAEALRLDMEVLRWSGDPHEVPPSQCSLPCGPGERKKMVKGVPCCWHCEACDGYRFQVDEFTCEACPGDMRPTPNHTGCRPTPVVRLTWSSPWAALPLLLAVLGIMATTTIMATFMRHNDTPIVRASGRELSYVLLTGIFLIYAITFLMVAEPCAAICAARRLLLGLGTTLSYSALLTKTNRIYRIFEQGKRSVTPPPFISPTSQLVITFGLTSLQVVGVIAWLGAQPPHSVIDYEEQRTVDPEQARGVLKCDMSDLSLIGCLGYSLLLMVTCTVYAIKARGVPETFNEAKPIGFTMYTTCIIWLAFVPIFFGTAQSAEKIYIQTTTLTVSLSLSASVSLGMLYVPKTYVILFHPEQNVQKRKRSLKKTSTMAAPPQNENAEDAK
Description: as §2

mGluR4 = target: T5, mGluR4 (Rattus norvegicus, UniProt P31423); test: forskolin-induced cAMP formation in mGluR4-expressing CHO cells; type: cell-based; settings: up to 100 μM
T5 construct: expressed in transfected cells; host or cells: CHO
T5 sequence (P31423 33-912): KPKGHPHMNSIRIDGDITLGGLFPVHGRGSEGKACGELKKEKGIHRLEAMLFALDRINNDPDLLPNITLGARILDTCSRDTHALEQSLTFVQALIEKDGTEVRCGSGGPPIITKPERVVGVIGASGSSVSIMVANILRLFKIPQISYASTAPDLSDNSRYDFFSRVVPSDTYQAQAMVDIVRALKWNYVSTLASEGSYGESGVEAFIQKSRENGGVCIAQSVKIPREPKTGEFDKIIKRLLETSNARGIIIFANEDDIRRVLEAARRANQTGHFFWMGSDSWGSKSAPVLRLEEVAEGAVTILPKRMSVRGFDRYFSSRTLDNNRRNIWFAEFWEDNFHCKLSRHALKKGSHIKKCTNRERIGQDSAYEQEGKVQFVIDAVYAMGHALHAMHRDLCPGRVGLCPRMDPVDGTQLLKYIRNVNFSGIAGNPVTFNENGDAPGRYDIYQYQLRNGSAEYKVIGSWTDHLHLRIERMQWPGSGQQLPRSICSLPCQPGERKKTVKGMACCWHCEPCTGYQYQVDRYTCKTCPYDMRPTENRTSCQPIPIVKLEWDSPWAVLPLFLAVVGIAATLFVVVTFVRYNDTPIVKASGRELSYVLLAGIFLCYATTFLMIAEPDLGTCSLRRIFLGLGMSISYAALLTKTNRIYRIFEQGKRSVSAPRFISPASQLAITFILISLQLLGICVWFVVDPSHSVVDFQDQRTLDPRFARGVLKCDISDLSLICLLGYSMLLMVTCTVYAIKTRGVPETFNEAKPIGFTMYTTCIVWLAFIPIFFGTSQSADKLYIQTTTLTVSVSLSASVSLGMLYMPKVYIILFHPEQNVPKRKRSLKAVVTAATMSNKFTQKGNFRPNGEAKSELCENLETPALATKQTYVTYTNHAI
Description: as §2

mGluR2 = target: T6, mGluR2 (Rattus norvegicus, UniProt P31421); test: forskolin-induced cAMP formation in mGluR2-expressing CHO cells; type: cell-based; settings: up to 100 μM
T6 construct: expressed in transfected cells; host or cells: CHO
T6 sequence (P31421 19-872): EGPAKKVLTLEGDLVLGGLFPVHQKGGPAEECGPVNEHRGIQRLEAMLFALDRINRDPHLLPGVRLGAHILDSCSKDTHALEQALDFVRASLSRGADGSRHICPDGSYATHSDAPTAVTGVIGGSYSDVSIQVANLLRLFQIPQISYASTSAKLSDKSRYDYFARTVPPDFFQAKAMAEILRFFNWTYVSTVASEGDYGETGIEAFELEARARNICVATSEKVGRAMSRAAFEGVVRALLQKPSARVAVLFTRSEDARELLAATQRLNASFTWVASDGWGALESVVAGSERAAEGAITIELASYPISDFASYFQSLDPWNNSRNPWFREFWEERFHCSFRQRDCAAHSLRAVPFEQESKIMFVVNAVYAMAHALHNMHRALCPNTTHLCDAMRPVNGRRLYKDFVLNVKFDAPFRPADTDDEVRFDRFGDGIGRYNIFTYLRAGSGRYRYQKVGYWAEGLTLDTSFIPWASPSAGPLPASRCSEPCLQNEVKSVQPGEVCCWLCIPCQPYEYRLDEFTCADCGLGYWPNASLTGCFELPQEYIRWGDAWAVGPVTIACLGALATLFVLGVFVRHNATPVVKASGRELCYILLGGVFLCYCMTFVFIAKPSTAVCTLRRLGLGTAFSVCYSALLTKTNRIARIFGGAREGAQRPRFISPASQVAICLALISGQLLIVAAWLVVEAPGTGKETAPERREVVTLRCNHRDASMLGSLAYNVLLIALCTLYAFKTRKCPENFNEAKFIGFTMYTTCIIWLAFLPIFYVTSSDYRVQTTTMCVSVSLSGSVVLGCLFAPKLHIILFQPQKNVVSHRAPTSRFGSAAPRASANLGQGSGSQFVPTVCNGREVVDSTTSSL
Description: as §2

mGluR7 = target: T7, mGluR7 (Rattus norvegicus, UniProt P35400); test: forskolin-induced cAMP formation in mGluR7-expressing CHO cells; type: cell-based; settings: up to 100 μM
T7 construct: expressed in transfected cells; host or cells: CHO
T7 sequence (P35400 35-915): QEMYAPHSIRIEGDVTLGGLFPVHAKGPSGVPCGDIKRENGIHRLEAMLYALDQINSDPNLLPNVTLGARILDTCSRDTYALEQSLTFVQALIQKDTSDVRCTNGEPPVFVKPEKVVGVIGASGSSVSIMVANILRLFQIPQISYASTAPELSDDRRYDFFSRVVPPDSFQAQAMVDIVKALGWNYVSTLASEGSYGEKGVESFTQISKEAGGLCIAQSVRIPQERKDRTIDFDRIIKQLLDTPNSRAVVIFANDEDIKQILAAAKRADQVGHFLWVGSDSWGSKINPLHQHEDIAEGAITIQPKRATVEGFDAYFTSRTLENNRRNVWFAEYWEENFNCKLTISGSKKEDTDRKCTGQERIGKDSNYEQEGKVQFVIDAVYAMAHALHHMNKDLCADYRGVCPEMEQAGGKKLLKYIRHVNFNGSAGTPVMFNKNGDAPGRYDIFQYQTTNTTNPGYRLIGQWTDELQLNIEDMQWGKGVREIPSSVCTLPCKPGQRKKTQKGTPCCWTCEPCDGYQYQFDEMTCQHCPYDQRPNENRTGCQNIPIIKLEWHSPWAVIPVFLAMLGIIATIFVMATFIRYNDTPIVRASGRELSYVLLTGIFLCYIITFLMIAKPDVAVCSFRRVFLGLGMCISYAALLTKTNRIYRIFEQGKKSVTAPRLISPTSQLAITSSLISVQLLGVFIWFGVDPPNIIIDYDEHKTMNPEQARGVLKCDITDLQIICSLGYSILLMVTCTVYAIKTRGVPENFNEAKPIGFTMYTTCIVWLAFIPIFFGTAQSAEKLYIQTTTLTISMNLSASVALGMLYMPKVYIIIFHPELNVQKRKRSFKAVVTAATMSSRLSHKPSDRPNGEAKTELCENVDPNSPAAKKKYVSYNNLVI
Description: as §2

**Q.** For `NC1(C(=O)O)CCc2cc(C(=O)O)ccc21` (stereo not shown) [AIDA], which “loss of neuronal cells in CA1 area” value ([1]; intraventricular administration) is on record?
**A.** The value was “reduced the loss of the neuronal cells”.

**Q.** Which IC50 (mGluR1α) does the source give for `Cc1c(C(=O)N(C)C2CCCCC2)sc2nc3ccc(N)cc3n12.Cl.Cl` [compound A, 6-amino-N-cyclohexyl-N,3-dimethylthiazolo[3,2-a]benzoimidazole-2-carboxamide dihydrochloride] here?
**A.** Its IC50 is 0.024 µM.

**Q.** And the “cerebral infarct volume suppression ratio in cerebral cortex” value [2]?
**A.** The value was 36%.

**Q.** What about the “cerebral infarct volume suppression ratio in cerebral hemisphere” value [2] of the same compound?
**A.** Its value is 29%.

**Q.** What about the “effect on cerebral infarct volume versus controls” value [2] of the same compound?
**A.** The value was “reduced the cerebral infarct volume significantly”.

**Q.** What about the “agonist and antagonist activities against mGluR5” value (mGluR5) of the same compound?
**A.** Its value is “no agonist and antagonist activities”.

**Q.** What about the “agonist and antagonist activities against mGluR3” value (mGluR3) of the same compound?
**A.** The value was “no agonist and antagonist activities”.

**Q.** What about the “agonist and antagonist activities against mGluR6” value (mGluR6) of the same compound?
**A.** The value was “no agonist and antagonist activities”.

**Q.** And the “agonist and antagonist activities against mGluR4” value (mGluR4)?
**A.** The value was “no agonist and antagonist activities”.

**Q.** And the “agonist and antagonist activities against mGluR2” value (mGluR2)?
**A.** The value was “no agonist and antagonist activities”.

**Q.** What about the “agonist and antagonist activities against mGluR7” value (mGluR7) of the same compound?
**A.** The value was “no agonist and antagonist activities”.

**Q.** Which “neuroprotective effectiveness in the same gerbil model” value [1] does the source give for `N[C@H](C(=O)O)c1ccc(C(=O)O)c(O)c1` [4 C3 HPG, (S)-4-carboxy-3 hydroxyphenylglycine] here?
**A.** Its value is “is effective”.

**Q.** Which “neuroprotective effectiveness in the same gerbil model” value [1] does the source give for `N[C@H](C(=O)O)c1ccc(C(=O)O)cc1` [4 CPG, (S)-4-carboxyphenylglycine] here?
**A.** Its value is “is not effective”.
